Test results published in ChEMBL document CHEMBL1139279, “3,4-Disubstituted indole acylsulfonamides: a novel series of potent and selective human EP3 receptor antagonists” (Bioorg Med Chem Lett, 2009).
pIC50: −log10 of the molar value. One block for each compound: values may come before it.

Assays:
[1] = target: T1, Prostaglandin E2 receptor EP3 subtype (Homo sapiens, UniProt P43115); assay: Displacement of [3H]PGE2 from human EP3 receptor
T1 sequence (P43115 whole entry): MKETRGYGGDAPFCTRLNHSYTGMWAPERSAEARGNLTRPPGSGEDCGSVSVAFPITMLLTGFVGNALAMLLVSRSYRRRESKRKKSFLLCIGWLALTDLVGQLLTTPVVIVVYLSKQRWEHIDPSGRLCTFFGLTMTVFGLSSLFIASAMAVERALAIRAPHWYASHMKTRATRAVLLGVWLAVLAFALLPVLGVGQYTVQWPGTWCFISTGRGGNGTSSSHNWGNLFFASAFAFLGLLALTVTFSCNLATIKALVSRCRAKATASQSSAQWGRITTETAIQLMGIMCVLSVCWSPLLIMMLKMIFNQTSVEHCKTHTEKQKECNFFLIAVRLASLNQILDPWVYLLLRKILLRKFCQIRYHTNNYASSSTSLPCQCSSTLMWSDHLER

[2] = target: T1, Prostaglandin E2 receptor EP3 subtype; assay: Displacement of [3H]PGE2 from human EP3 receptor in presence of 10% human serum
[3] = species: Homo sapiens; assay: Selectivity ratio of IC50 for human IP receptor to IC50 for human EP3 receptor
[4] = species: Homo sapiens; assay: Selectivity ratio of IC50 for human FP receptor to IC50 for human EP3 receptor
[5] = species: Homo sapiens; assay: Selectivity ratio of IC50 for human EP4 receptor to IC50 for human EP3 receptor
[6] = species: Homo sapiens; assay: Selectivity ratio of IC50 for human EP2 receptor to IC50 for human EP3 receptor
[7] = Metabolic stability in human liver microsomes at 5 uM after 30 mins; assay type: ADME, Microsome; details: read-out: Activity
[8] = system: Liver microsomes; assay: Metabolic stability in rat liver microsomes at 5 uM after 30 mins; assay type: ADME, Microsome; details: 0.5 h
[9] = species: Homo sapiens; assay: Selectivity ratio of IC50 for human EP1 receptor to IC50 for human EP3 receptor
[10] = target: T2, Prostaglandin E2 receptor EP3 subtype (Mus musculus, UniProt P30557); assay: Displacement of [3H]PGE2 from mouse EP3 receptor
T2 sequence (P30557 whole entry): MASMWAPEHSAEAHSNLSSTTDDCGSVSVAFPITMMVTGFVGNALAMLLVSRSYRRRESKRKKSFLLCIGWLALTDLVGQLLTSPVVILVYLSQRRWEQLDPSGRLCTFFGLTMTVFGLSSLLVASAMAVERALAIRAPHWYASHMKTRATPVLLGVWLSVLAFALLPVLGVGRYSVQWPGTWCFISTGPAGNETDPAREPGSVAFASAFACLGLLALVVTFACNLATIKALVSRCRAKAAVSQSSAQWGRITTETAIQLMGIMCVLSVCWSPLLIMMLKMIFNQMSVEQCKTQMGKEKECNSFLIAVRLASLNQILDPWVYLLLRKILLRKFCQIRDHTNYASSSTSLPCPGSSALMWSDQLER

[11] = species: Rattus norvegicus; assay: Ex vivo inhibition of platelet aggregation in rat platelet-rich plasma; assay type: functional, organism-based
[12] = target: T1, Prostaglandin E2 receptor EP3 subtype; assay: Antagonist activity at human EP3 receptor assessed as cAMP production by cell-based assay; assay type: functional

Structure (SMILES): Cn1nnnc1S(=O)(=O)c1c[nH]c2cccc(OCC(=O)NS(=O)(=O)c3cc(Cl)c(Cl)s3)c12
pIC50 [1]: 7.05

Structure (SMILES): O=C(COc1cccc2[nH]cc(Sc3nc4ccccc4s3)c12)NS(=O)(=O)c1cc(Cl)c(Cl)s1
pIC50 [1]: 8.12
fold shift [2]: 9.8
Ratio IC50 [3]: 1060
Ratio IC50 [4]: 300
Ratio IC50 [5]: 2390
Ratio IC50 [6]: 1660

Structure (SMILES): O=C(COc1cccc2[nH]cc(S(=O)(=O)c3ccc(F)cc3Cl)c12)NS(=O)(=O)c1cc(Cl)c(Cl)s1
pIC50 [1]: 7.69
fold shift [2]: 10.7

Structure (SMILES): Cc1nnc(Sc2c[nH]c3cccc(OCC(=O)NS(=O)(=O)c4cc(Cl)c(Cl)s4)c23)s1
pIC50 [1]: 7.44

Structure (SMILES): O=C(COc1cccc2[nH]cc(Sc3ccc4ccccc4c3)c12)NS(=O)(=O)c1cccs1
pIC50 [1]: 8.52
fold shift [2]: 27.5

Structure (SMILES): Cn1nnnc1Sc1c[nH]c2cccc(OCC(=O)NS(=O)(=O)c3cc(Cl)c(Cl)s3)c12
pIC50 [1]: 8.09
fold shift [2]: 58.3

Structure (SMILES): NC(=O)Cc1ccc(S(=O)(=O)c2c[nH]c3cccc(OCC(=O)NS(=O)(=O)c4cc(Cl)c(Cl)s4)c23)cc1
pIC50 [1]: 7.56
fold shift [2]: 5

Structure (SMILES): COc1ccc(S(=O)(=O)c2c[nH]c3cccc(OCC(=O)NS(=O)(=O)c4cc(Cl)c(Cl)s4)c23)cc1OC
pIC50 [1]: 7.94

Structure (SMILES): O=C(COc1cccc2[nH]cc(Sc3ccc(Cl)c(Cl)c3)c12)NS(=O)(=O)c1cc(Cl)c(Cl)s1
pIC50 [1]: 8.89
fold shift [2]: 1.1
Ratio IC50 [3]: 4480
Ratio IC50 [4]: 596
Ratio IC50 [5]: 1770
Ratio IC50 [6]: 950
Ratio IC50 [9]: 10800
remaining at 0.5 h, 5 µM [7]: 46%
Activity [8]: 74%
pIC50 [10]: 7.81
pIC50 [11]: 6.45
pIC50 [12]: 9.52

Structure (SMILES): O=C(COc1cccc2[nH]cc(S(=O)(=O)c3ccc(Cl)cc3Cl)c12)NS(=O)(=O)c1cc(Cl)c(Cl)s1
remaining at 0.5 h, 5 µM [7]: 79%
Activity [8]: 72%

Structure (SMILES): O=C(COc1cccc2[nH]cc(Sc3ccccc3Cl)c12)NS(=O)(=O)c1cc(Cl)c(Cl)s1
pIC50 [1]: 7.86
fold shift [2]: 5.8

Structure (SMILES): COc1ccc(Sc2c[nH]c3cccc(OCC(=O)NS(=O)(=O)c4cc(Cl)c(Cl)s4)c23)cc1
pIC50 [1]: 9.30
fold shift [2]: 22.6

Structure (SMILES): O=C(COc1cccc2[nH]cc(Sc3ccc4ccccc4c3)c12)NS(=O)(=O)c1cccc(Cl)c1
pIC50 [1]: 8.70
fold shift [2]: 2.2
Ratio IC50 [3]: 1300
Ratio IC50 [4]: 1030
Ratio IC50 [5]: 1360
Ratio IC50 [6]: 1090
Ratio IC50 [9]: 12300

Structure (SMILES): Cc1ccc(Sc2c[nH]c3cccc(OCC(=O)NS(=O)(=O)c4cc(Cl)c(Cl)s4)c23)c(C)c1
pIC50 [1]: 8.89
fold shift [2]: 5.2
Ratio IC50 [3]: 31600
Ratio IC50 [4]: 401
Ratio IC50 [5]: 1860
Ratio IC50 [6]: 1290
Ratio IC50 [9]: 13100

Structure (SMILES): Cn1c(Sc2c[nH]c3cccc(OCC(=O)NS(=O)(=O)c4cc(Cl)c(Cl)s4)c23)nc2ccccc21
pIC50 [1]: 8.60
fold shift [2]: 10.5

Continued, values first:

pIC50 [1]: 8.23
Structure (SMILES): O=C(COc1cccc2[nH]cc(S(=O)(=O)c3ccc4ccccc4c3)c12)NS(=O)(=O)c1cccc(Cl)c1

pIC50 [1]: 8.85
fold shift [2]: 48.7
Structure (SMILES): O=C(COc1cccc2[nH]cc(Sc3ccc4ccccc4c3)c12)NS(=O)(=O)c1ccccc1Cl

remaining at 0.5 h, 5 µM [7]: 75%
Activity [8]: 98%
Structure (SMILES): O=C(COc1cccc2[nH]cc(S(=O)(=O)c3ccc(Cl)cc3)c12)NS(=O)(=O)c1cc(Cl)c(Cl)s1

pIC50 [1]: 7.52
Structure (SMILES): COc1ccc(S(=O)(=O)c2c[nH]c3cccc(OCC(=O)NS(=O)(=O)c4cc(Cl)c(Cl)s4)c23)cc1

pIC50 [1]: 8.24
fold shift [2]: 33.2
Structure (SMILES): Cc1ccc(S(=O)(=O)c2c[nH]c3cccc(OCC(=O)NS(=O)(=O)c4cc(Cl)c(Cl)s4)c23)c(C)c1

pIC50 [1]: 7.56
fold shift [2]: 0.2
Ratio IC50 [3]: 3350
Ratio IC50 [4]: 2030
Ratio IC50 [5]: 8880
Ratio IC50 [6]: 6230
Ratio IC50 [9]: 3520
remaining at 0.5 h, 5 µM [7]: 37%
Activity [8]: 0%
Structure (SMILES): O=C(COc1cccc2[nH]cc(Sc3ccc(Cl)cc3Cl)c12)NS(=O)(=O)c1cc(Cl)c(Cl)s1

pIC50 [1]: 6.26
Structure (SMILES): COc1ccc(S(=O)(=O)NC(=O)COc2cccc3[nH]cc(S(=O)(=O)c4ccc5ccccc5c4)c23)cc1

remaining at 0.5 h, 5 µM [7]: 60%
Activity [8]: 68%
Structure (SMILES): O=C(COc1cccc2[nH]cc(S(=O)(=O)c3ccc4ccccc4n3)c12)NS(=O)(=O)c1cc(Cl)c(Cl)s1

pIC50 [1]: 8.33
fold shift [2]: 3.6
Ratio IC50 [3]: 2710
Ratio IC50 [4]: 384
Ratio IC50 [5]: 4220
Ratio IC50 [6]: 1450
Ratio IC50 [9]: 5190
remaining at 0.5 h, 5 µM [7]: 69.7%
Activity [8]: 68.8%
pIC50 [10]: 8.70
pIC50 [11]: 6.87
pIC50 [12]: 9.00
Structure (SMILES): O=C(COc1cccc2[nH]cc(S(=O)(=O)c3ccc(Cl)c(Cl)c3)c12)NS(=O)(=O)c1cc(Cl)c(Cl)s1

pIC50 [1]: 7.62
fold shift [2]: 13.2
Structure (SMILES): COc1ccccc1Sc1c[nH]c2cccc(OCC(=O)NS(=O)(=O)c3cc(Cl)c(Cl)s3)c12

remaining at 0.5 h, 5 µM [7]: 23%
Activity [8]: 35%
Structure (SMILES): O=C(COc1cccc2[nH]cc(Sc3ccc4ccccc4n3)c12)NS(=O)(=O)c1cc(Cl)c(Cl)s1

remaining at 0.5 h, 5 µM [7]: 52%
Activity [8]: 14%
Structure (SMILES): O=C(COc1cccc2[nH]cc(Sc3ccc(Cl)cc3)c12)NS(=O)(=O)c1cc(Cl)c(Cl)s1

pIC50 [1]: 6.63
Structure (SMILES): O=C(COc1cccc2[nH]cc(S(=O)(=O)c3nc[nH]n3)c12)NS(=O)(=O)c1cc(Cl)c(Cl)s1
